From patent US8007782B2, “Combination bacteriolytic therapy for the treatment of tumors” (priority 2003, dated 2011)

What was measured:
[1] = tested on: Glucose Transporter-1 (Glut-1); test: Immunohistochemistry for Glut-1 (hypoxia marker) in HCT116 xenografts; format: in vivo, mice; conditions: HTI-286 1.7 mg/kg or docetaxel 50 mg/kg iv, 6 hr after treatment
Description: Mice were euthanized six hours after treatment. Tumors were sectioned and H & E stained. Adjacent sections were stained for Glut-1 expression, a marker for hypoxia. Cells positive for Glut-1 appear brown. Arrows indicate examples of hemorrhage.
Paraffin sections were deparaffinized, incubated with proteinase K (Invitrogen), heated at 95° C. for 20 min in citrate buffer (pH 6), and treated with peroxidase blocking reagent (Dako). Sections were incubated with a monoclonal antibody against Glucose Transporter-1 (Glut-1, Dako) followed by a biotin-conjugated secondary antibody (Pierce). A third layer consisting of HRP-conjugated anti-biotin (DAKO) was followed by diaminobenzidine (Sigma) staining. Sections were counterstained with eosin.
Two independent tests of this hypothesis were performed. First, we directly assessed hypoxia within tumors by staining with an antibody to Glucose Transporter-1 (Glut-1). Glut-1 has been extensively studied and shown to be specifically expressed only in hypoxic regions (Airley et al., 2001).

[2] = Mortality following COBALT; format: in vivo, nude mice; conditions: deaths within one week, pooled xenograft models
Description: (§1) All animal protocols were designed in accordance with the Guide for the Care and Use of Laboratory Animals (NIH Publication 86-23) and were approved by the Johns Hopkins University Institutional Animal Care and Use Committee. Six to eight week old mice were implanted subcutaneously on one flank with 3 to 6 million cancer cells. Establishment of tumors of 150 to 500 mm3 took 8 to 21 days, depending on the cell type. C. novyi-NT spores (300×106) and anti-microtubule agents were generally administered by a single intravenous injection through the tail vein in a total volume of 300 to 500 ul phosphate-buffered saline (PBS). Quantitative assessment of tumor growth was performed by measuring subcutaneous tumor grafts (major and minor axis) using electronic calipers. Tumor volume was calculated using the equation: length×width2×0.5. Progression free survival was defined as the length of time following treatment before any increase in tumor volume was observed. Mice were considered “cured” if no tumor was evident three months after treatment. Animals were weighed at least twice a week and carefully observed for signs of toxicity every day for the first week following treatment and then twice a week thereafter. At least five mice were used for each treatment arm described in the Experimental Results.
(§2) This toxicity was observed only when the combination of C. novyi-NT spores and the drugs was administered and not with either the bacteria or the drugs alone. […] Though major tumor regressions were common, few mice died as a result of therapy (Table 2) No deaths occurred after treatment with the microtubule stabilizers plus C. novyi-NT, while 4% to 8% of mice treated with microtubule destabilizers plus C. novyi-NT died. The only other toxicity observed was transient weight loss (Table 3). Mice treated with the drugs alone lost ˜5 to 10% of their body weight within 7 days, while weight loss after treatment with C. novyi-NT plus these drugs varied from 8% to 18%. All weights recovered to pre-treatment levels within two weeks.

Weight loss after COBALT = format: in vivo, nude mice; conditions: drug dose 1.7 mg/kg; maximum average weight loss relative to weight one day prior to treatment; HCT116 xenografts
Description: as §1, §2

## CN[C@H](C(=O)N[C@H](C(=O)N(C)[C@H](/C=C(\C)C(=O)O)C(C)C)C(C)(C)C)C(C)(C)c1ccccc1 [HTI-286, N,β,β-trimethyl-L-phenylalanyl-N^1-[(1S,2E)-3-carboxy-1-isopropylbut-2-enyl]-N^1,3-dimethyl-L-valinamide]
[1]
  Glut-1 expression (hypoxia marker) in tumors: large amounts of Glut-1
[2]; drug dose 1.7 mg/kg
  # dead (treatment-related deaths): 3
  dead (%): 2.9%
[2]; drug dose 1.9 mg/kg
  # dead (treatment-related deaths): 3
  dead (%): 5.4%
[2]; drug dose 2.0 mg/kg
  # dead (treatment-related deaths): 5
  dead (%): 10.6%
Weight loss after COBALT
  Weight Loss (%): 11.4%
